Assay results published in US12673057B2, “RIPK2 inhibition for the treatment of cancer” (CEDARS-SINAI MEDICAL CENTER, priority 2020, dated 2026).
Entries after “also recorded” stand apart in the source; their conditions may differ. Read-outs that look alike come from different tables or passages of the source. Residues, ends and D or L forms follow the SMILES beside them. *: point of attachment. Cbz = O=C(OCc1ccccc1)*

Legend:
[1] = system: c-Myc-Ser62 phosphorylation; test: RIPK2-induced c-Myc-Ser62 phosphorylation immunoblot in RIPK2/MKK7-DKO HEK293T cells; assay type: cell-based, human
Method: (A) Representative immunoblots of the indicated proteins in total lysates of HEK293T cells with RIPK2- and MKK7-double knockout, which were transiently co-transfected with 0.5 μg MYC, 0.5 μg RIPK2m4, and 0.1 μg MAP2K7 or vector plasmids and then treated with vehicle control, MKK7-COV-3 (25 μM), or JNK-IN-8 (1 μM) in 10% FBS-containing medium for 2 h. (B) Representative images (upper) and quantification (lower) of PLA detecting the association of endogenous MKK7 and c-Myc in HEK293T cells (n=4 per group). (C) Representative images of immunofluorescence colocalization of MKK7 and c-Myc in RIPK2/MKK7-DKO HEK293T cells, which were transiently co-transfected with RIPK2m4, MKK7-His, and MYC plasmids. (D) Representative immunoblots of the indicated proteins after in vitro kinase reactions. (E) Representative immunoblots of the indicated proteins in total lysates of RIPK2/MKK7-DKO HEK293T cells, which were transiently transfected with the indicated forms of MKK7 plasmids or vector control. (F) Representative immunoblots of the indicated proteins in total lysates, cytoplasmic fraction, and nuclear fraction of RIPK2/MKK7-DKO HEK293T cells, which were transiently co-transfected with RIPK2m4, MYC, and MKK7 or vector control. (G) Representative images (upper) and quantification (lower) of PLA detecting the MKK7-c-Myc complex in RIPK2-KO HEK293T cells, which were transiently transfected with MYC and RIPK2m4 or vector control (n=5 per group). […] Data are Mean±SEM.
MKK7-COV-3, 25 μM; JNK-IN-8, 1 μM; 2-h treatment).

JNK = test: RIPK2-induced c-Jun phosphorylation (surrogate for JNK activity) in RIPK2/MKK7-DKO HEK293T cells; assay type: cell-based, human; details: 1 μM, 2-h treatment
Method: (A) Representative immunoblots of the indicated proteins in total lysates of HEK293T cells with RIPK2- and MKK7-double knockout, which were transiently co-transfected with 0.5 μg MYC, 0.5 μg RIPK2m4, and 0.1 μg MAP2K7 or vector plasmids and then treated with vehicle control, MKK7-COV-3 (25 μM), or JNK-IN-8 (1 μM) in 10% FBS-containing medium for 2 h. (B) Representative images (upper) and quantification (lower) of PLA detecting the association of endogenous MKK7 and c-Myc in HEK293T cells (n=4 per group). (C) Representative images of immunofluorescence colocalization of MKK7 and c-Myc in RIPK2/MKK7-DKO HEK293T cells, which were transiently co-transfected with RIPK2m4, MKK7-His, and MYC plasmids. (D) Representative immunoblots of the indicated proteins after in vitro kinase reactions. (E) Representative immunoblots of the indicated proteins in total lysates of RIPK2/MKK7-DKO HEK293T cells, which were transiently transfected with the indicated forms of MKK7 plasmids or vector control. […] (G) Representative images (upper) and quantification (lower) of PLA detecting the MKK7-c-Myc complex in RIPK2-KO HEK293T cells, which were transiently transfected with MYC and RIPK2m4 or vector control (n=5 per group). […]

c-Myc protein = c-Myc protein degradation under cycloheximide treatment in PC3 cells; assay type: cell-based, human; details: in the presence of CHX treatment
Text: In human cells, the c-Myc protein can be rapidly stabilized through Ser62 phosphorylation, which prevents the targeted degradation of c-Myc by the ubiquitin-proteasome system (Farrell and Sears, 2014). Therefore, we investigated whether RIPK2 phosphorylates and stabilizes the c-Myc protein. Ectopic overexpression of RIPK2 increased the abundance of phospho-c-Myc-Ser62 (p-c-Myc-Ser62) and total c-Myc in a dose-dependent fashion (FIG. 18L). […] Of note, RIPK2 is more frequently amplified or gained in mCRPC or overexpressed in primary PC than all known direct c-Myc-Ser62 kinases (FIG. 29). This raises a possibility that RIPK2 can more efficiently stabilize and activate c-Myc, and thus its overexpression is more favored by PC cells than the known direct c-Myc-Ser62 kinases. Collectively, RIPK2 stabilizes the c-Myc protein by phosphorylating its Ser62 residue and preventing it from proteasomal degradation, and RIPK2 is potentially a major stabilizer of the c-Myc protein in PC cells.

22Rv1 cells = system: 22Rv1 cells
Method: Experimental metastasis model: For In vivo metastasis assays, pBMN (CMV-copGFP-Luc2-Puro) (Addgene) was stably transfected into control and RIPK2-KO 22Rv1 cells. Two weeks later, luciferase-expressing cells were sorted with a FACSAria III (BD Biosciences) using the same gate for GFP. […] To each male SCID/Beige mouse (7-week-old; Charles River), 100 μL of 1×10^7 cells/mL in DPBS was intracardially injected into the left cardiac ventricle. Each week, 150 μL of 30 mg/mL D-luciferin was intraperitoneally injected into each mouse, followed by measuring tumor metastasis with an IVIS Spectrum In Vivo Imaging System (PerkinElmer). Luciferase activity was quantified by the Living Image software (Caliper Life Sciences, v4.3.1).
Established metastasis model: For drug treatment, to each male SCID/Beige mouse (8-week-old; Charles River), 100 μL of 2.5×10^6 cells/mL in DPBS was intracardially injected. […] Two more mice were assigned to drug treatment groups in preparation for possible drug toxicity deaths, compared with the control group. Mice were daily administered by oral gavage (po qd) with a drug or vehicle control for 28 days. GSK583 was administered at 10 mg/kg po qd. […] Metastases were visualized by bioluminescence imaging every week as described above. At the end of the experiments, mice were sacrificed by standard necropsy, and tumors were harvested and subjected to histopathology analyses.
In the clinical scenario, patients with nmCRPC have no detectable metastases by conventional radiographic imaging. […] To investigate whether pharmacological inhibition of RIPK2 can suppress PC metastasis in a setting that mimics the clinical scenario, we injected the aforementioned luciferase-tagged control 22Rv1 cells intracardially into male SCID/Beige mice, and waited for 9 days to allow for the formation of early metastatic lesions, prior to drug treatment (FIG. 22G). To determine whether GSK583 impairs metastatic outgrowth, we randomized the mice into two groups (FIG. 31A), followed by treatment with vehicle control or GSK583 (10 mg/kg) administered by oral gavage every day (po qd).

MYC mRNA = MYC mRNA abundance by quantitative RT-PCR; assay type: cell-based; details: different doses and time
Text: Total RNA was extracted from cells using the TRIZOL (Invitrogen). Messenger RNA was converted to the first-strand cDNA using iScript cDNA synthesis kit (Bio-Rad), followed by RT-PCR reaction using SYBR Green PCR Master Kit in QuantStudio 5 Systems (Applied Biosystems). Gene expression was normalized to GAPDH using the comparative CT method. To determine how RIPK2 upregulates the c-Myc protein, we first examined whether RIPK2 regulates the transcription of the MYC gene. […] Thus, the regulation of c-Myc protein abundance by RIPK2 is mainly via a post-transcriptional mechanism.

PC3 cells = test: 3D spheroid invasion assay; details: 10 μM, 3D culture
RIPK2 = test: Cell-based MKK7 phosphorylation immunoblot, surrogate for RIPK2 activity, RIPK2-KO HEK293T cells; design: species or system human; details: 10 μM, 2 h, 10% fetal bovine serum
[2] = system: RIPK2/MKK7(/JNK)/c-Myc signaling; test: Immunoblot of endogenous p-JNK, p-c-Myc-S62 and c-Myc in parental PC cells; assay type: cell-based, human; details: 10 μM GSK583 or 5 μM Ponatinib, 2 h
[3] = system: PC3, DU145, and 22Rv1 cells; test: Clonogenic assay (anchorage-dependent colony formation); assay type: cell-based, human
Method: Two milliliters of PC3 (250/mL), DU145 (250/mL), or 22Rv1 (1,000/mL) cells were seeded in 6-well plates and cultured in 10% FBS-containing media, which were replaced every 2-3 days. After 10-14 days, cells were fixed in 4% paraformaldehyde for 15 min and rinsed with DPBS for three times. Cells were stained with 120 μg/mL crystal violet solution. Cell colonies were quantified under an All-in-one microscope (Keyence) as described in the migration assay.

[4] = mouse, in vivo, po, 30 mg/kg
[5] = system: PC3, DU145, and 22Rv1 cells; test: Soft agar assay (anchorage-independent colony formation); assay type: cell-based, human; details: 10 μM
Method: Soft agar assay was performed essentially as described (Borowicz et al., 2014). Briefly, 1.5 mL of 0.5% Nobel agar solution was plated in each well of 6-well plates as the bottom layer. 1.5 mL of 6.67×10^3/mL (for PC3 and DU145) or 1.33×10^4/mL (for 22Rv1) cells in 0.3% noble agar solution were plated in 6-well plates as the top layer. […] The medium was replaced every 2-3 days. After 2-3 weeks, cell colonies were stained with 0.1% crystal violet solution for 20 minutes and washed with deionized water for five times. Cell colonies were quantified under an All-in-one microscope (Keyence) as described in the migration assay.

[6] = cited from earlier work
PC3 and 22Rv1 cells = test: PC cell viability; details: 1 μM, 10% FBS-containing medium

Cc1cc(NC(=O)c2cccc(NC(=O)/C=C/CN(C)C)c2)ccc1Nc1nccc(-c2cccnc2)n1 [JNK-IN-8]
reduction of RIPK2-induced c-Myc-Ser62 phosphorylation ([1]; 1 μM, 2-h treatment): 16% | inhibition of RIPK2-induced c-Myc-Ser62 phosphorylation at higher concentrations ([1]; up to 25 μM): could not enhance its inhibition | RIPK2-induced c-Jun phosphorylation, a surrogate for JNK activity (JNK): completed abolished

CC(C)C[C@@H](C=O)NC(=O)[C@H](CC(C)C)NC(=O)[C@H](CC(C)C)NC(=O)OCc1ccccc1 [MG132] (Cbz-Leu-Leu-Leu-aldehyde)
degradation of the c-Myc protein (c-Myc protein): degradation can be blocked

CC(C)(C)S(=O)(=O)c1ccc2nccc(Nc3n[nH]c4ccc(F)cc34)c2c1 [GSK583]
PC liver metastasis in vivo (22Rv1 cells; 10 mg/kg po qd): Inhibits | prostate cancer (22Rv1) metastasis in mice (22Rv1 cells; 10 mg/kg po qd): significantly decreased; also recorded: significantly suppressed; also recorded: significantly reduces; also recorded: Inhibits | decrease of BLI intensities in the ventral-side mid-body (liver metastasis) (22Rv1 cells; 10 mg/kg po qd, week 4): 67% | reduction of metastatic progression (total BLI intensities) (22Rv1 cells; 10 mg/kg po qd, week 4): 50% | regulation of MYC mRNA abundance (MYC mRNA): ~10% | spheroid invasion of PC3 cells (PC3 cells): significantly decreased; also recorded: significantly inhibited; also recorded: suppresses | MKK7 phosphorylation levels (a surrogate for RIPK2 activity) (RIPK2): substantially decreased | RIPK2/MKK7(/JNK)/c-Myc signaling [2]: can inhibit | anchorage-dependent colony formation ([3]; 10 μM, PC3, DU145, and 22Rv1): suppresses | inhibition at 10 µM ([3]; Homo sapiens, read-out: inhibition of colony formation): ≥ 40% | inhibition of colony formation ([3]; low doses (≤1 μM), PC3, DU145, and 22Rv1): not at low doses | toxicity to mice [4]: toxic to mice | anchorage-independent colony formation [5]: suppresses

C=CC(=O)Nc1cccc(-c2n[nH]c3cc(C)ccc23)c1 [MKK7-COV-3]
decrease of RIPK2-induced c-Myc-Ser62 phosphorylation ([1]; 25 μM, 2-h treatment): 45%

Cc1ccc(C(=O)Nc2ccc(CN3CCN(C)CC3)c(C(F)(F)F)c2)cc1C#Cc1cnc2cccnn12 [Ponatinib]
reduction of total BLI intensities (22Rv1 cells; high-dose 30 mg/kg po qd for 10 days then 15 mg/kg, week 4): 92% | reduction of total BLI intensities (22Rv1 cells; low-dose 6 mg/kg po qd, week 4): 74% | venous thromboembolic events ([6]; % of patients): 6% | arterial occlusive adverse events: cardiac vascular events ([6]; patients): 21% | arterial occlusive adverse events: cerebrovascular ([6]; patients): 9% | arterial occlusive adverse events: peripheral vascular ([6]; patients): 12% | common adverse event: abdominal pain ([6]; patients): 48% | common adverse event: arterial ischemia ([6]; patients): 42% | common adverse event: arthralgia ([6]; patients): 32% | common adverse event: back pain ([6]; patients): 21% | common adverse event: constipation ([6]; patients): 41% | common adverse event: diarrhea ([6]; patients): 20% | common adverse event: dry skin ([6]; patients): 42% | common adverse event: fatigue ([6]; patients): 47% | common adverse event: headache ([6]; patients): 43% | common adverse event: hypertension ([6]; patients): 69% | common adverse event: myalgia ([6]; patients): 24% | common adverse event: nausea ([6]; patients): 28% | common adverse event: pain in extremity ([6]; patients): 23% | common adverse event: peripheral neuropathy ([6]; patients): 24% | common adverse event: pyrexia ([6]; patients): 26% | common adverse event: rash ([6]; patients): 63% | IC50 ([3]; Homo sapiens, read-out: IC50 of colony formation of PC cells): < 1000 nM | effect on PC cell viability (PC3 and 22Rv1 cells): marginal effects
